According to ChEMBL document CHEMBL5236551, “Andrographolide and its derivatives: Current achievements and future perspectives” (Eur J Med Chem, 2021):
pIC50: −log10 of the molar value. ≈ marks a conversion by molar mass, not a printed value. Where “and” joins values, the source holds several entries; their conditions need not be identical. Equal entries are not always repeated.

Columns and labels:
HCT-116 = test: Antiproliferative activity against human HCT-116 cells assessed as cell growth inhibition measured after 48 hrs by MTT assay; format: functional, cell-based; details: HCT-116, 48 h
MDA-MB-361 = test: Antitumor activity against human MDA-MB-361 cells assessed as tumor growth inhibition; format: functional, cell-based
[1] = Inhibition of mesenchymal transformation in human A549 cells assessed as inhibition rate relative to control; format: functional
enterovirus D68 = test: Antiviral activity against Enterovirus D68 infected in human RD cells assessed as inhibition of viral replication measured after 48 hrs by qRT-PCR analysis; format: functional, organism-based; details: Enterovirus D
[2] = Antiviral activity against HIV infected in human MT2 cells; format: functional, cell-based; details: Human immunodeficiency virus 1, MT2
K562 = test: Antiproliferative activity against human K562 cells assessed as reduction in cell viability by MTT assay; format: functional, cell-based
[3] = Antimigratory activity against human LX2 cells assessed as inhibition rate relative to control; format: functional, LX-2
MCF7 = test: Cytotoxicity against human MCF7 cells; format: functional, cell-based
T47D = test: Antiproliferative activity against human T47D cells; format: functional, cell-based
[4] = Antiviral activity against DENV2 infected in human HepG2 cells incubated for 1 hrs by plaque assay; format: functional, cell-based, dengue virus type 2; details: Dengue virus, HepG2, 1 h
MDA-MB-231 = test: Antitumor activity against human MDA-MB-231 cells assessed as tumor growth inhibition; format: functional, cell-based
[5] = Antimigratory activity against human Cardiac fibroblast cells assessed as inhibition rate relative to control; format: functional
Rattus norvegicus = test: Anti-inflammatory activity against egg white-induced paw edema in rat model assessed as detumescence rate measured after 6 hrs relative to control; format: functional
KBM5 = test: Antiproliferative activity against human KBM5 cells assessed as reduction in cell viability by MTT assay; format: functional, cell-based
HK-2 = test: Antiproliferative activity against human HK-2 cells; format: functional, cell-based
BT-549 = test: Antiproliferative activity against human BT-549 cells; format: functional, cell-based
[6] = Antiviral activity against DENV2 infected in human HeLa cells incubated for 1 hrs by plaque assay; format: functional, cell-based, dengue virus type 2; details: Dengue virus
[7] = system: Human immunodeficiency virus; test: Antiviral activity against HIV infected in human C8166 cells; format: functional, organism-based
Staphylococcus aureus = test: Antibacterial activity against Staphylococcus aureus MTCC 96 assessed as bacterial growth inhibition by broth micro-dilution assay; format: functional
Chikungunya virus = test: Antiviral activity against Chikungunya virus; format: functional, organism-based

SMILES: C=C1CC[C@@H]2[C@](C)(CO)[C@H](O)CC[C@@]2(C)[C@@H]1C/C=C1/C(=O)OC[C@H]1O [ANDROGRAPHOLIDE]
- pIC50 (HCT-116): 4.50
- pIC50 (MDA-MB-361): 4.50
- inhibition (INH) [1]: 55%
- pIC50 (enterovirus D68): 5.46
- pIC50 [2]: 3.85
- pIC50 (K562): 4.63
- inhibition (INH) [3]: 15%
- pIC50 (MCF7): 4.45
- pIC50 (T47D): 4.49
- pIC50 [4]: 4.68
- pIC50 (MDA-MB-231): 4.69
- inhibition (INH) [5]: 35%
- inhibition (INH) (Rattus norvegicus): 74.42%
- pIC50 (KBM5): 5.07
- pIC50 (HK-2): 4.51
- pIC50 (BT-549): 4.63
- pIC50 [6]: 4.64
- pIC50 [7]: 5.10 and 5.63
- MIC (Staphylococcus aureus): 100 µg/mL (≈ 285 µM)
- pIC50 (Chikungunya virus): 6.22
